Where two headings read alike, the source gives them in different places.
Columns and labels:
[1] = test system: human colon cancer cell line KM12 subcutaneous xenograft tumor; test: In vivo efficacy, subcutaneous xenograft tumor of human colon cancer KM12; design: species or system BALB/c mouse; settings: PO
Method: Experimental object: evaluation of the in vivo efficacy of test drugs such as WX002A on subcutaneous xenograft tumor of human colon cancer cell line KM12 cell in BALB/c mouse model.
Drug preparation: The compounds were all prepared into clear solutions with 5% DMSO+10% solutol+85% water as solvent for administration in the PO (intragastric) group.
Tumor measurement: the tumor diameters were measured with a vernier caliper twice a week. The calculation formula of tumor volume is: V=0.5×a×b^2, wherein a and b represent the long diameter and short diameter of the tumor, respectively. The anti-tumor efficacy of the compounds is evaluated by TGI (%). TGI (%) reflects tumor growth inhibition rate.
Statistical analysis: The statistical analysis was based on the relative tumor volume and tumor weight at the end of the experiment using SPSS software. One-way ANOVA was used to analyze the comparison between multiple groups. […] P<0.05 was considered to indicate significant difference.

[2] = In vivo cassette pharmacokinetic test in mice; design: species or system male CD-1 mice; settings: cassette, mice; for Apparent clearance Cl: IV @ 1 mpk
Method: The dose of the compounds: […] PO dose of 3 mg/kg, and administration volume of 3 mL/kg.

[3] = In vivo pharmacokinetic test in mice; design: species or system male CD-1 mice; settings: for Cmax: read-out: Peak concentration Cmax; for Vd: read-out: Apparent volume of distribution Vd; for AUC(0-t): read-out: Area under the curve AUC0-last; for half-life: read-out: Half life T1/2 (converted); for bioavailability: read-out: Bioavailability F %; for Tmax: read-out: Time of peak concentration Tmax
Method: Experimental object: male CD-1 mice aged 7-9 weeks were used as the experimental animals, the LC/MS/MS method was used to determine the drug concentrations in plasma at different time points after single intravenous (IV) and intragastric (PO) administration of the compounds, in vivo pharmacokinetic behaviors of the compounds of the present disclosure in mice were studied, and pharmacokinetic characteristics thereof were evaluated. Drug preparation: The compounds were prepared into clear solutions with 5% DMSO+10% solutol+85% water as solvent for administration in IV (intravenous) group and PO (intragastric). The dose of the compounds: IV dose of 3 mg/kg, and PO dose of […].

ALK = molecular target: T1, ALK (Homo sapiens, UniProt Q9UM73); test: Kinase inhibitory activity (33P-ATP filter binding, Reaction Biology Corp.); type: biochemical; settings: read-out: The half maximal inhibitory concentration IC50 on the kinases, ALK
T1 construct: purchased Reaction Biology Corp. (contract assay)
Method: The inhibitory activities of the compounds on TrkA, TrkC, ALK, Ros1 and other kinases were determined by Reaction Biology Corp. To reaction buffer (20 mM Hepes (pH 7.5), 10 mM MgCl2, 1 mM EGTA, 0.02% Brij35, 0.02 mg/mL BSA, 0.1 mM Na3VO4, 2 mM DTT, 1% DMSO) were sequentially added a certain concentration of substrate, coenzyme factor, kinase and test compound (10 concentrations, 3-fold serial dilutions, DMSO at a final concentration of […]), and the mixture was mixed evenly. The mixture was incubated at room temperature for 20 minutes. To the reaction mixture was added a certain concentration of ^33P-ATP to initiate the reaction, and then the mixture was incubated at room temperature for 120 minutes. The radioactivities of the reactants were determined by the method of filter binding. The final kinase activity was expressed as the ratio of the remaining kinase activity in the test sample to the kinase activity in the DMSO control group. The dose-effect curve was fitted by GraphPad software and the IC50 was calculated.

[4] = molecular target: T2, Ba/F3 LMNA-NTRK1-WT stably transfected cell line (Homo sapiens, UniProt P04629); test: Cell proliferation inhibition (CellTiter-Glo); type: cell-based; settings: 72 hours, read-out: The half maximal inhibitory concentration IC50 against cells, Ba/F3 LMNA-NTRK1-WT
T2 construct: fused on or other part: P02545 (Prelamin-A/C)
Method: Adenosine Tri-Phosphate (ATP) is an energy carrier shared by various life activities in nature, and is the smallest unit of energy storage and transfer. The CellTiter-Glo™ cell viability detection kit uses luciferase as the detection substance, and luciferase requires the participation of ATP during the process of luminescence. CellTiter-Glo™ reagent is added to cell culture medium, and the luminescent intensity is measured. The luminescent signal is directly proportional to the amount of ATP in the system, and ATP is positively related to the number of living cells. Therefore, by using the CellTiter-Glo kit to detect ATP content, cell proliferation can be detected. In this assay, the cell line is Ba/F3 LMNA-NTRK1-WT stably transfected cell line, with 5000 cells/well.
IC50 Determination Process:
1. Cell Culture and Inoculation
a) the cells in the logarithmic growth phase were harvested, and counted with a platelet counter. Trypan blue exclusion method was used to detect cell viability to ensure the cell viability was no less than 90%.
b) the cell concentration was adjusted; 90 μL of cell suspension was added respectively into a 96-well plate.
c) the cells in the 96-well plates was cultured under conditions of 37° C., 5% CO2 and 95% humidity overnight.
2. Drug Dilution and Administration
a) 10-fold drug solutions were prepared, the highest concentration was 10 μM, 9 concentrations, 3-fold diluted (refer to Appendix I). 10 μL of each drug solution was added to each well of the 96-well plate seeded with the cells in triplicate.
b) the cells in the 96-well plate added with the drug were cultured under conditions of 37° C., 5% CO2 and 95% humidity for 72 hours, and then CTG (cell proliferation) was performed.
a) CellTiter-Glo™ reagent was thawed, and the cell plate was equilibrated at room temperature for 30 minutes.
b) CellTiter-Glo™ reagent of a same volume was added to each well;
c) the cell plate was shaken on an orbital shaker for 5 minutes to lyse the cells.
d) the cell plate was placed at room temperature for 20 minutes to stabilize the luminescent signal.
e) the luminescent intensity was read.
GraphPad Prism 5.0 software was used to analyze the data, nonlinear S-curve regression was used to fit the data to obtain dose-effect curve, and IC50 value was calculated therefrom.

[5] = molecular target: T3, Ba/F3 LMNA-NTRK1-G595R stably transfected cell line (Homo sapiens, UniProt P04629, G595R, cells depend on it); test: Cell proliferation inhibition (CellTiter-Glo); type: cell-based; settings: 72 hours, read-out: The half maximal inhibitory concentration IC50 against cells, Ba/F3 LMNA-NTRK1-G595R
T3 construct: fused on or other part: P02545 (Prelamin-A/C)

TrkA-G667C = molecular target: T4, TrkA-G667C (Homo sapiens, UniProt P04629, G667C); test: Kinase inhibitory activity (33P-ATP filter binding, Reaction Biology Corp.); type: biochemical; settings: read-out: The half maximal inhibitory concentration IC50 on the kinases, TrkA-G667C
T4 construct: purchased Reaction Biology Corp. (contract assay)
Method: (§1) The mixture was incubated at room temperature for 20 minutes. To the reaction mixture was added a certain concentration of ^33P-ATP to initiate the reaction, and then the mixture was incubated at room temperature for 120 minutes. The radioactivities of the reactants were determined by the method of filter binding. The final kinase activity was expressed as the ratio of the remaining kinase activity in the test sample to the kinase activity in the DMSO control group. The dose-effect curve was fitted by GraphPad software and the IC50 was calculated.

TrkA = molecular target: T5, TrkA (Homo sapiens, UniProt P04629); test: as above; type: biochemical; settings: read-out: The half maximal inhibitory concentration IC50 on the kinases, TrkA
T5 construct: purchased Reaction Biology Corp. (contract assay)
Method: as §1

TrkC = molecular target: T6, TrkC (Homo sapiens, UniProt Q16288); test: as above; type: biochemical; settings: read-out: The half maximal inhibitory concentration IC50 on the kinases, TrkC
T6 construct: purchased Reaction Biology Corp. (contract assay)
Method: as §1

Ros1 = molecular target: T7, Ros1 (Homo sapiens, UniProt P08922); test: as above; type: biochemical; settings: read-out: The half maximal inhibitory concentration IC50 on the kinases, Ros1
T7 construct: purchased Reaction Biology Corp. (contract assay)
Method: as §1

TrkA-G595R = molecular target: T8, TrkA-G595R (Homo sapiens, UniProt P04629, G595R); test: as above; type: biochemical; settings: read-out: The half maximal inhibitory concentration IC50 on the kinases, TrkA-G595R
T8 construct: purchased Reaction Biology Corp. (contract assay)
Method: as §1

[6] = molecular target: T9, BaF3 ETV6-NTRK3-G623R stably transfected cell line (Homo sapiens, UniProt Q16288, G623R, cells depend on it); test: Cell proliferation inhibition (CellTiter-Glo); type: cell-based; settings: 72 hours, read-out: The half maximal inhibitory concentration IC50 against cells, BaF3 ETV6-NTRK3-G623R
T9 construct: fused on or other part: P41212 (Transcription factor ETV6)

[7] = male, CD-1, mouse, plasma, IV dose of 3 mg/kg
[8] = male, CD-1, mouse, plasma, PO dose of 10 mL/kg vs IV 3 mg/kg
[9] = male, CD-1, mouse, plasma, PO dose of 10 mL/kg

T6 sequence (Q16288 32-839): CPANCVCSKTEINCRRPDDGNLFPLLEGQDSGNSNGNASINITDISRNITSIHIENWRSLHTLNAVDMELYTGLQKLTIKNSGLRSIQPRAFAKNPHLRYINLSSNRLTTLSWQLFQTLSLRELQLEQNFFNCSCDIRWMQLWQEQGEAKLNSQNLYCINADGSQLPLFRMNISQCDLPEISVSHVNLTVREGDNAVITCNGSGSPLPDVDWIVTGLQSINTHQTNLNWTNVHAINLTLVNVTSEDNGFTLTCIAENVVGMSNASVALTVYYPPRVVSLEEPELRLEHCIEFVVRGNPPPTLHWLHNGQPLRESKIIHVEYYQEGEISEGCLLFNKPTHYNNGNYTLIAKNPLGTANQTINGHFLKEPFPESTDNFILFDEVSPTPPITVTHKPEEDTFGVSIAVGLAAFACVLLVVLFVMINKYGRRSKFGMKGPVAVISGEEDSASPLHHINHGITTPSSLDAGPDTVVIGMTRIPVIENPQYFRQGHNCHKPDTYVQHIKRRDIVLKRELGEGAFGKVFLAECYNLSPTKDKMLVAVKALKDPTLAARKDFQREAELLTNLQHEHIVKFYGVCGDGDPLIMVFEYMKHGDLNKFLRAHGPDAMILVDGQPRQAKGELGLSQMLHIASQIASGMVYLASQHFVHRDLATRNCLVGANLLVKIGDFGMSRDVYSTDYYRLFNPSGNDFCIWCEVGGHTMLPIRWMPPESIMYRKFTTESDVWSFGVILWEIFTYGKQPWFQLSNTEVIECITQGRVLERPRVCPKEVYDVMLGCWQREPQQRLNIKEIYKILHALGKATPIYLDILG
T7 sequence (P08922 28-2347): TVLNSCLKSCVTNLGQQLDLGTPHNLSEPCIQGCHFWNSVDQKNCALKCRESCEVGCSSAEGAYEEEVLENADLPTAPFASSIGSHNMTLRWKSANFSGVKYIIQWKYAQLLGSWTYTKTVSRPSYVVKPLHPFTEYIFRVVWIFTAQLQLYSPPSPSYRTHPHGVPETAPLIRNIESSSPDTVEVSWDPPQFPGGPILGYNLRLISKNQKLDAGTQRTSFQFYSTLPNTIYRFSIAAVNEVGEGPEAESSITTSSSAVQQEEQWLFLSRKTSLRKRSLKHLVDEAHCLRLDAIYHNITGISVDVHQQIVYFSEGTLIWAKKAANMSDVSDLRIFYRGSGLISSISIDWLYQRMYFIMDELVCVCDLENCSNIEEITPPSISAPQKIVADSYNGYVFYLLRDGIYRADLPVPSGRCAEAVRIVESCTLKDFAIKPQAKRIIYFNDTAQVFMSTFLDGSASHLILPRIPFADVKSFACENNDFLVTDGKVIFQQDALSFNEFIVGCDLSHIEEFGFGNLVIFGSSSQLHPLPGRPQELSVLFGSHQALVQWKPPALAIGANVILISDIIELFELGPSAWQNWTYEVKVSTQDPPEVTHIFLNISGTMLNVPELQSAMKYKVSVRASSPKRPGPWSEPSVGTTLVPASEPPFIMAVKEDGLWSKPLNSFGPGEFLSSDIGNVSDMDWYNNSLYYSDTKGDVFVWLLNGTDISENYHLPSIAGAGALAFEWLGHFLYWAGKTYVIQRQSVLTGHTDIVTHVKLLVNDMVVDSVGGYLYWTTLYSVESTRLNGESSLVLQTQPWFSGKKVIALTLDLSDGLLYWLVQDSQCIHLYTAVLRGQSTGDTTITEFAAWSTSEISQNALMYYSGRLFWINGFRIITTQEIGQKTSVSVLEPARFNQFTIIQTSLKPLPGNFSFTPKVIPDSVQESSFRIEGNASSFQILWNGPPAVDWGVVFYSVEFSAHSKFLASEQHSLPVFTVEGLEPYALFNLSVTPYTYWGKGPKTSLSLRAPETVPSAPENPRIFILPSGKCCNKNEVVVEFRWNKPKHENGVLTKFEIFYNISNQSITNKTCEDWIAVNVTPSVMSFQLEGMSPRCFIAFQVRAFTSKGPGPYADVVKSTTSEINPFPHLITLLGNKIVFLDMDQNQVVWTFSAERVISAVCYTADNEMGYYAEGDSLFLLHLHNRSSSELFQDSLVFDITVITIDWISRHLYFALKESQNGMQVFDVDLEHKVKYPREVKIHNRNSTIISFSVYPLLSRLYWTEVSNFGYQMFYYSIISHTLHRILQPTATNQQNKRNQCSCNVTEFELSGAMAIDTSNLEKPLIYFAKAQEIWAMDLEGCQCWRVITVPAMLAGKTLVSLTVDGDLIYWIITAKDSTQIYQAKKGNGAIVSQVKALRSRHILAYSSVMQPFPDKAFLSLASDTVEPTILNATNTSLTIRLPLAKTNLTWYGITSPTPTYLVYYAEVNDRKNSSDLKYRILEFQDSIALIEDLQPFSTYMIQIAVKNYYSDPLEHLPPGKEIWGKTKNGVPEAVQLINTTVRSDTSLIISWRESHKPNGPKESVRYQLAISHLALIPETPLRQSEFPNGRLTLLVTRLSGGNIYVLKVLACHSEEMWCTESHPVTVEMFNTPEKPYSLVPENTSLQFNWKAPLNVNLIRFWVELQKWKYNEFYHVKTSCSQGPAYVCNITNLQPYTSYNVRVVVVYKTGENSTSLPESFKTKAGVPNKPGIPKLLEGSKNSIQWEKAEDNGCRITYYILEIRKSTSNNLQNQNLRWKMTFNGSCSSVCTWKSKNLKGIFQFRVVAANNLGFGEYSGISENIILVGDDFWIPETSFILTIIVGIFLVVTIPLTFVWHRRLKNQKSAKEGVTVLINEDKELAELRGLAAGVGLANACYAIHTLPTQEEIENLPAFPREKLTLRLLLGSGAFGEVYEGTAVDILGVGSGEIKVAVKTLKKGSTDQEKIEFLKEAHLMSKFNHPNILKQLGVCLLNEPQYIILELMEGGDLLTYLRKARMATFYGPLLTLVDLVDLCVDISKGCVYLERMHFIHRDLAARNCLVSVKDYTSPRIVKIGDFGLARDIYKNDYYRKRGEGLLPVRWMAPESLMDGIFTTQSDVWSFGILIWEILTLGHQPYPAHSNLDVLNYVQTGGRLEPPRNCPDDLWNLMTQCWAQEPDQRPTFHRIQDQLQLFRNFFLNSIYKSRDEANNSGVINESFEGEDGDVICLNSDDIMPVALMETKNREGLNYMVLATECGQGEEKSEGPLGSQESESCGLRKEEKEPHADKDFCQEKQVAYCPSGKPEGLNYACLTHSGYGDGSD
T8 sequence (P04629 33-796 G595R): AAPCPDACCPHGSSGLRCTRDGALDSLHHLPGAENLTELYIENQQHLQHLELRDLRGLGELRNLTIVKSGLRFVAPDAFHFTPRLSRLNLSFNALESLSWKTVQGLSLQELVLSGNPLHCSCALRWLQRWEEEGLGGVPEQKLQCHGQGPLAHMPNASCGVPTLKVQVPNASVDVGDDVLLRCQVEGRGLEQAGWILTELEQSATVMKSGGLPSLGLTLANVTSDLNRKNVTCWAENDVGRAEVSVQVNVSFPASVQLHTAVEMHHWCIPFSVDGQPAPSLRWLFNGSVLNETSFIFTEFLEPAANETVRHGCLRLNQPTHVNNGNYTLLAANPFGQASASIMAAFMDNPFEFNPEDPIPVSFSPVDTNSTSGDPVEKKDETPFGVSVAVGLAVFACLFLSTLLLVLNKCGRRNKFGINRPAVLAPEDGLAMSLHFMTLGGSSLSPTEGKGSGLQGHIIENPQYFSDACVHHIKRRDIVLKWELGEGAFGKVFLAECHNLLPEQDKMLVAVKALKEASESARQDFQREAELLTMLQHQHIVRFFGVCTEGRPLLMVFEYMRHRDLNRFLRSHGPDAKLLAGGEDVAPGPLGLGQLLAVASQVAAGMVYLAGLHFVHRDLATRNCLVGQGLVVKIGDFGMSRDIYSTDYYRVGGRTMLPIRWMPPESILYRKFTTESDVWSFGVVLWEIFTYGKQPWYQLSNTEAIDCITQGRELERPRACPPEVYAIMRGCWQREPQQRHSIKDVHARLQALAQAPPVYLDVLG
T3 sequence (P04629 whole entry G595R, the tested form may be a part): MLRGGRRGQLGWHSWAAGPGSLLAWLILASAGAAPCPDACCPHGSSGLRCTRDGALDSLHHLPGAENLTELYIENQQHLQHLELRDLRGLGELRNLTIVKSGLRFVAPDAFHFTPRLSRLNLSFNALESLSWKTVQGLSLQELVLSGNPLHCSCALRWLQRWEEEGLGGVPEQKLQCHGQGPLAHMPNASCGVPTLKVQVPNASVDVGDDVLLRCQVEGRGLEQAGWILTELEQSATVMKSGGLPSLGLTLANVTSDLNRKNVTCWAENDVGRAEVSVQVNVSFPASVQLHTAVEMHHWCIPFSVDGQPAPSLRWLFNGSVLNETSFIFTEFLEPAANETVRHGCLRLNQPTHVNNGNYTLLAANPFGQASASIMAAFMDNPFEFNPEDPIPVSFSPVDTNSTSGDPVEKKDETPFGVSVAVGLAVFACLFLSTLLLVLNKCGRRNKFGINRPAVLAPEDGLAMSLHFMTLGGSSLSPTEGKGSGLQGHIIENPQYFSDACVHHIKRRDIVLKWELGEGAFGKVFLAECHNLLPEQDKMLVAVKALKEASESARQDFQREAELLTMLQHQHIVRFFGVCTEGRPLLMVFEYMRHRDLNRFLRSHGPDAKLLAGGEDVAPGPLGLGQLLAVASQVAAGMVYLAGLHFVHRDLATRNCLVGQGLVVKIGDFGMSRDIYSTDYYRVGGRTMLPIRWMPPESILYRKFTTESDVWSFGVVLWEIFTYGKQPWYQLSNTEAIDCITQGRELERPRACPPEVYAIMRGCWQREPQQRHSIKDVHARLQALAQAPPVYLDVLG
T4 sequence (P04629 33-796 G667C): as the sequence (P04629 33-796 G595R) above, with R563G, G635C counted along it
T2 sequence (P04629 whole entry, stated change not applied, the tested form may be a part): as the sequence (P04629 whole entry G595R, the tested form may be a part) above, with R595G counted along it
T5 sequence (P04629 33-796): as the sequence (P04629 33-796 G595R) above, with R563G counted along it

Compound | Apparent clearance Cl [2] [mL/min/kg] | drug concentration in cerebrospinal fluid at 0.5 hour CSF@0.5 h ([2]; PO @ 3 mpk, CSF) [nmol/kg] | drug concentration in brain at 0.5 h Brain@0.5 h ([2]; PO @ 3 mpk) [nmol/kg] | IC50 (ALK) [nM] | GI50 [4] [nM] | GI50 [5] [nM] | IC50 (TrkA-G667C) [nM] | IC50 (TrkA) [nM] | IC50 (TrkC) [nM] | IC50 (Ros1) [nM] | IC50 (TrkA-G595R) [nM] | Apparent clearance Cl ([3]; IV dose of 3 mg/kg) [mL/min/kg] | Vd [3, 7] [L/kg] | AUC(0-t) [3, 7] [µM·h] | half-life [3, 7] [min] | bioavailability [3, 8] [%] | AUC(0-t) [3, 9] [µM·h] | Cmax [3, 9] [µM] | Tmax [3, 9] [min] | GI50 [6] [nM] | also measured
O=C(Nc1cnn2ccc(N3CCC[C@@H]3c3cc(F)ccc3F)nc12)N1CC[C@H](O)C1 [LOXO-101, Larotrectinib, reference compound] | 22.7 | 15 | 40 |  |  |  |  |  |  |  |  |  |  |  |  |  |  |  |  |  | T/C ([1]; high-dose group 60 mg/kg): 34.20%; TGI ([1]; high-dose group 60 mg/kg): 69.73%; drug concentration in cerebrospinal fluid at 2 hour CSF@2 h ([2]; PO @ 3 mpk, CSF, 2 h): 3 nmol/kg; drug concentration in brain at 2 h Brain@2 h ([2]; PO @ 3 mpk, 2 h): 20 nmol/kg; Area under the curve AUC0-last ([3]; PO dose of 10 mL/kg): 2.89 µM·h; Time of peak concentration Tmax ([3]; PO dose of 10 mL/kg): 22.8 min; Cmax ([3]; PO dose of 10 mL/kg): 1.55 µM
C[C@H]1CNC(=O)c2cnn3ccc(nc23)N[C@H](C)c2cc(F)ccc2O1 [TPX-0005, reference compound] | 16.5 | 8 | 50 |  |  |  |  |  |  |  |  |  |  |  |  |  |  |  |  |  | T/C ([1]; dose of 3 mg/kg): 16.80%; TGI ([1]; dose of 3 mg/kg): 87.46%; drug concentration in brain at 2 h Brain@2 h ([2]; PO @ 3 mpk, 2 h): 41 nmol/kg
C[C@@H]1COc2ncc(F)cc2[C@H]2CCON2c2ccn3ncc(c3n2)C(=O)N1 [WX004A] |  |  |  | 109 | 7.69 | 14.5 | 42 | 14.3 | 0.41 | 0.94 | 38.5 | 10.4 | 0.75 | 12.5 | 44.4 | 72 | 29.6 | 10.5 | 30 | 2.1 | 
C[C@@H]1COc2ccc(F)cc2[C@H]2CCON2c2ccn3ncc(c3n2)C(=O)N1 [WX017A] |  |  |  | 119 |  |  | 26.3 | 13.4 | 0.3 | 0.82 | 37.1 | 17.8 | 0.74 | 7.34 | 42.6 | 111 | 26.7 | 10.8 | 37.8 |  | 
O=C1NC2(CC2)COc2ccc(F)cc2[C@H]2CCON2c2ccn3ncc1c3n2 (single isomer, unassigned) [WX003A] |  |  |  | 28.1 | 4.08 | 27.9 | 3.04 | 2.66 | 0.06 | 0.15 | 3.59 | 10.8 |  |  |  |  |  |  |  | 0.9 | Apparent volume of distribution Vd ([3]; IV dose of 3 mg/kg): 0.81 L/kg; Area under the curve AUC0-last ([3]; IV dose of 3 mg/kg): 12.216 µM·h; Half life T1/2 ([3]; IV dose of 3 mg/kg): 42 min; Area under the curve AUC0-last ([3]; PO dose of 10 mL/kg): 27.967 µM·h; Time of peak concentration Tmax ([3]; PO dose of 10 mL/kg): 22.8 min; Bioavailability F % ([3]; PO dose of 10 mL/kg vs IV 3 mg/kg): 69%; Cmax ([3]; PO dose of 10 mL/kg): 7.36 µM
O=C1NC2(COC2)COc2ncc(F)cc2[C@H]2CCON2c2ccn3ncc1c3n2 [WX006A] |  |  |  | 79.2 | 23.5 | 19.4 | 37.5 | 9.84 | 0.16 | 0.59 | 4.74 | 19.9 | 1.01 | 6.1 | 33.6 | 72 | 14.4 | 8.78 | 15 | 5.4 | 
